Assay results from US20230125075A1, “Composition Containing Paper Mulberry Extracts” (LG Household & Health Care Ltd., priority 2020, published 2023).
Values joined by “and” are separate entries in the source; they are usually repeats but may differ in a detail not shown here. Equal entries are not always repeated.

Legend:
Format in all cases: cell-based
HUVEC cells = test: Recovery of reduction in nitric oxide induced by oxLDL (Griess reagent); settings: positive control
Protocol: To confirm the blood circulation improvement effect of the plant extracts, recovery of reduction in nitric oxide induced by oxidized low density lipoprotein (oxLDL) was measured. First, HUVEC cells were suspended in a Ham's F-12K (Kaighn's modification) culture medium, and the suspended cells were aliquoted into a culture plate. Then, plant extracts (samples) diluted at various concentrations were added to the culture plate containing the cells. At this time, […]. The sample-treated cells were placed in a 5% CO2 incubator set at 37° C. and cultured for 24 to 48 hours, and then the supernatant was taken and used as an analysis sample.
To analyze nitric oxide, a Griess reagent was prepared by mixing equal amounts of component A and component B. Then, 250 μl of the sample (culture medium) and 50 μl of the Griess reagent were added to a plate and mixed thoroughly. Next, to prepare a sodium nitrite solution, a nitrite standard solution was diluted with distilled water to a concentration between […] (reference sample). Under light-blocked conditions, a mixture of the sample and the Griess reagent was incubated at room temperature for 30 minutes. Thereafter, the absorbance (OD) of the nitrite-containing sample with respect to the reference sample was measured at 548 nm.
In this experiment, it was confirmed whether the level of nitric oxide decreased by oxLDL was recovered by the plant extracts. At this time, as a result of the experiment, the amount of nitric oxide was quantified. Nitric oxide plays a role in dilating blood vessels.

HepG2 cells = test: Cholesterol synthesis in HepG2 cells ([14C] acetate incorporation); settings: for IC50: positive controls, HepG2 cells
Protocol: To confirm the lipid-cholesterol improvement effect of the plant extracts, an appropriate number of HepG2 cells was seeded and cultured using a IMEM culture medium (containing 10% of FCS, 4.5 g/L of glucose, 4 mM glutamine, 10 μg/ml of insulin, 50 μg/ml of penicillin, 50 μg/ml of streptomycin, and 1% of non-essential amino acids). At this time, the culture medium was replaced every 2 days, and the cells were used for the experiment on the 12th day after seeding.
1 ml of a labeled acetate solution ([^14C] sodium acetate) was added to the cells, and the cells were incubated in a CO2 incubator. After 1 hour of incubation, the culture medium was discarded, the cells were washed with ice-cold PBS, 2 M NaOH was added to detach the cells, and the cells were incubated at 95° C. for 1 hour to induce saponification of lipids. Then, [^3H] cholesterol (about 20,000 dpm/sample) was added as a recovery marker, and lipids were extracted with a chloroform-methanol (2:1 (v/v)) solution. Then, after separating lipides through thin layer chromatohrapy (TLC), a band corresponding to free cholesterol was scraped and placed in a scintillation vial for measurement. The results for the above experiment were expressed as the amount of acetate incorporated per protein (acetate (nmole) incorporated/protein (mg)).
In this experimental example, it was confirmed whether the plant extracts inhibit cholesterol synthesis. As a result of the experiment, the amount of cholesterol was quantified. A decrease in cholesterol level means that a cholesterol improvement effect is obtained.
The effect of the test substance on the intracellular cholesterol content was expressed as a relative ratio when the control group (treated with dimethyl sulfoxide (DMSO) only) was 100% or was expressed as the amount incorporated acetate ([^14C]-acetate (nmole) incorporated/4 h/well). As the measured value increases, the amount of synthesized cholesterol increases. That is, a decrease in cholesterol synthesis indicates improvement in cholesterol.

3T3-L1 fibroblasts = test: Glycerol content in culture medium of 3T3-L1 fibroblasts (lipolysis); settings: positive control
Protocol: To confirm the anti-obesity effect of the plant extracts, the content of glycerol in the culture medium of 3T3-L1 fibroblasts was measured.
First, 3T3-L1 fibroblasts were cultured using a DMEM culture medium (proliferation culture medium) containing 10% bovine serum to an appropriate cell number on a plate. Then, using a DMEM culture medium (differentiation culture medium) containing 10% FBS, the cells were cultured until the plate was filled with the cells, and then were further cultured for 2 to 3 days. The existing culture medium was replaced with a culture medium to induce cell differentiation, which contains insulin (5 μg/mL), dexamethasone (0.25 μM), and 3-isobutyl-1-methylxanthine (0.5 mM), and was followed by incubation for 2 to 3 days. Afterwards, the culture medium was replaced with a medium containing only insulin and the cells were incubated for 2 to 3 days, and then the culture medium was replaced again with a DMEM culture medium containing 10% FBS and the cells were again incubated for 6 to 8 days (incubated until a point at which fat accumulation is observed in the cells). The anti-obesity substance was added before or after differentiation induction according to the purpose of the experiment. The cell culture medium was centrifuged at 10,000 rpm for 10 minutes, and the supernatant was obtained using a Pasteur pipette. The obtained supernatant was transferred to a plate and heated at 65° C. for 8 min to inactivate enzymes released from the cells. Next, a glycerol probe was dissolved in 220 μl of DMSO, and a glycerol enzyme mixture (Cayman Chemical, USA; Item No. 10010962) was dissolved in an assay buffer. These solutions were shielded from light and stored at −20° C. until experiment was performed. A 1 mM glycerol standard solution was prepared by diluting 10 μl of a glycerol standard solution with 990 μl of an analysis buffer. Then, the 1 mM glycerol standard solution was thoroughly mixed, 0, 2, 4, 6, 8, and 10 μl of the 1 Mm glycerol standard solution were respectively added to each well, and the analysis buffer was added to the each well to adjust the total volume to 50 μl. 50 μl of the sample (culture medium in which enzymes are inactivated) was added to each well. A reaction mixture containing 46 μl of the analysis buffer, 2 μl of the glycerol probe, and 2 μl of the glycerol enzyme mixture was prepared. 50 μl of the reaction mixture was added to each well containing the standard solution and the sample and was thoroughly mixed. Then, each well was shielded from light and left at room temperature for 30 minutes. Then, absorbance was measured at 570 nm.
As a result of the experiment, the amount of glycerol was quantified. Glycerol is a by-product of lipolysis. Accordingly, as the level of glycerol increases, an anti-obesity effect increases.
When lipolysis is enhanced by the test substance, the amount of triglycerides accumulated in adipocytes decreases and the amount of glycerol released increases. Accordingly, an increase in the amount of released glycerol means an increase in decomposition of triglycerides. Through this experiment, it can be confirmed that the test substance has an anti-obesity effect.

C2C12 cells = test: Glucose uptake measurement (2-NBDG method, FACS); settings: positive control
Protocol: To confirm the blood glucose control effect of the plant extracts, the glucose uptake capacity of cells treated with the plant extracts was measured. First, C2C12 cells were seeded on a 96-well culture plate at a cell density of 1×10^4 cells/well. When a state of subconfluence was reached, which is within 24 hours, the experiment was started.
When saturated, the culture medium was removed, and 100 μl of a fresh medium containing 10 μM 2-NBDG or 100 μl of a fresh medium not containing 10 μM 2-NBDG (control) was added to each well. At this time, a test substance to be evaluated was included in the culture medium. That is, the cells were treated with the test substance by changing the culture medium. After treatment for 1 hour, wells were washed 2 times with pre-cold PBS. Then, cells in each well were collected and resuspended in 200 μl of a pre-cold medium, and the nuclei of the cells were stained with 1 μg/mL of propidium iodine (PI).
Measurement was performed with FACS for about 20 seconds. Event results of about 2,000 single cells were collected, and statistical analysis was performed on the event results.
In this experiment, it was determined whether the plant extracts promote intracellular glucose uptake. As a result of the experiment, the amount of glucose uptake into cells was quantified. That is, an increase in glucose uptake into cells means that the blood glucose control effect is improved.
As the value of measured fluorescence intensity increases, the glucose absorption rate increases. An increase in glucose absorption indicates a decrease in blood glucose levels.

U266 cells = test: IgE secretion measurement, ELISA
Protocol: To confirm the anti-allergic effect of the plant extracts, the secretion amount of immunoglobulin E was measured. First, U266 cells were treated with a test substance while culturing the U266 cells in an RPMI1640 culture medium containing 10% FBS for 3 days. After 3 days of treatment with the test substance, the cell culture medium was harvested. IgE capture antibody was added to the plate and left for 1 day. The plate was blocked with 2% BSA. The collected culture medium was added to the plate and mixed by shaking. IgE detection antibody was added to the plate and mixed by shaking. Streptavidin-HRP was added to the plate, and after blocking light, the mixture was shaken. A substrate was added to the plate, and after blocking light, the mixture was mixed by shaking until the color of the mixture changed to blue. After confirming that the color had changed, a 2 N sulfuric acid solution was added to the plate and mixed by shaking until the color changed to yellow. After measuring the absorbance at 450 nm and 570 nm, results were analyzed by subtracting the absorbance at 570 nm from the absorbance at 450 nm. At this time, as a positive control, 1 μM dexamethasone was used, and as a result, an inhibitory effect of 32% was observed. As a result of treatment with 0.1 μM hydrocortisone, an inhibitory effect of 35% was observed.
As a result of the experiment, the amount of IgE was quantified. As the level of IgE decreases, the anti-allergic effect increases.

## CC(C)c1nc(N(C)S(C)(=O)=O)nc(-c2ccc(F)cc2)c1/C=C/[C@@H](O)C[C@@H](O)CC(=O)O [Rosuvastatin]
HUVEC cells; 0.1 μM
  recovery of nitric oxide reduced by oxLDL: 100%
HUVEC cells; 0.05 ppm
  Blood circulation-NO Conc.: 98.29 % of control
  Blood circulation-NO Conc. (% of control): 98.29 % of control and 98.29 (Rosuvastatin % of control
HUVEC cells; Rosuvastatin 0.05 ppm
  Blood circulation-NO Conc.: 98.29 % of control
  Blood circulation-NO Conc. (% of control): 98.29 % of control

## CC(C)c1c(C(=O)Nc2ccccc2)c(-c2ccccc2)c(-c2ccc(F)cc2)n1CC[C@@H](O)C[C@@H](O)CC(=O)O [Atorvastatin]
HepG2 cells; Homo sapiens, HepG2, positive control, 70.4 nM, read-out: Lipid-cholesterol synthesis (% of control)
  activity at 0.0704 µM: 50%
HepG2 cells; Homo sapiens
  IC50: 70.4 nM
HepG2 cells; positive control, 70.4 nM
  Lipid-cholesterol synthesis: 50.00 % of control
  Lipid-cholesterol synthesis (% of control): 50.00 (Atorvastatin % of control
HepG2 cells; positive control, 70.4 nM, 0.0704 µM
  Lipid-cholesterol synthesis (% of control): 50.00 (Atorvastatin % of control
HepG2 cells; positive control, Atorvastatin 70.4 nM
  Lipid-cholesterol synthesis: 50.00 % of control

## CCCCCCCCCCC[C@@H](C[C@@H]1OC(=O)[C@H]1CCCCCC)OC(=O)[C@H](CC(C)C)NC=O [orlistat]
3T3-L1 fibroblasts; 0.5 ppm
  increase of glycerol compared to the negative control group: 160%

## CN(C)C(=N)N=C(N)N [Metformin]
C2C12 cells; Mus musculus, C2C12, 1 mM, read-out: Blood glucose-Glucose absorption (% of control)
  activity at 1000 µM: 184%
C2C12 cells; 1 mM
  Blood glucose-Glucose absorption: 183.77 % of control
  Blood glucose-Glucose absorption (% of control): 183.77 (Metformin % of control
  increase effect on glucose uptake: 180%
C2C12 cells; Metformin 1 mM
  Blood glucose-Glucose absorption: 183.77 % of control

## C[C@@H]1C[C@H]2[C@@H]3CCC4=CC(=O)C=C[C@]4(C)[C@@]3(F)[C@@H](O)C[C@]2(C)[C@@]1(O)C(=O)CO [Dexamethasone]
U266 cells; Homo sapiens, U-266, positive control, 1 uM, read-out: Anti-allergy-IgE secretion (% of control)
  activity at 1 µM: 67.3%
U266 cells; Homo sapiens, U-266, positive control, 1 μM, read-out: inhibitory effect on IgE secretion
  inhibition at 1 µM: 32%
U266 cells; positive control, 1 uM
  Anti-allergy-IgE secretion: 67.27 % of control
  Anti-allergy-IgE secretion (% of control): 67.27 (Dexamethasone % of control
U266 cells; positive control, Dexamethasone 1 uM
  Anti-allergy-IgE secretion: 67.27 % of control

## CCC(C)(C)C(=O)O[C@H]1C[C@@H](C)C=C2C=C[C@H](C)[C@H](CC[C@@H]3C[C@@H](O)CC(=O)O3)[C@H]21 [simvastatin]
HepG2 cells; Homo sapiens
  IC50: 31.8 nM

## CC(C)NCC(O)c1ccc(O)c(O)c1 (centres unmarked) [Isoproterenol]
3T3-L1 fibroblasts; Mus musculus, 3T3-L1, 10 μM, read-out: Anti-obesity-Glycerol Conc. (% of control)
  activity at 10 µM: 872%
3T3-L1 fibroblasts; 10 pM
  Anti-obesity-Glycerol Conc.: 872.36 % of control
3T3-L1 fibroblasts; 10 μM
  Anti-obesity-Glycerol Conc.: 872.36 % of control
  Anti-obesity-Glycerol Conc. (% of control): 872.36 (Isoproterenol % of control
3T3-L1 fibroblasts; Isoproterenol 10 μM
  Anti-obesity-Glycerol Conc.: 872.36 % of control

## C[C@]12CCC(=O)C=C1CC[C@@H]1[C@@H]2[C@@H](O)C[C@@]2(C)[C@H]1CC[C@]2(O)C(=O)CO [hydrocortisone]
U266 cells; Homo sapiens, U-266, 0.1 μM, read-out: inhibitory effect on IgE secretion
  inhibition at 0.1 µM: 35%
